B1: Folylpolyglutamate synthase, mitochondrial (Homo sapiens), Q05932 (protein)
chain: MSRARSHLRAALFLAAASARGITTQVAARRGLSAWPVPQEPSMEYQDAVRMLNTLQTNAGYLEQVKRQRGDPQTQLEAMELYLARSGLQVEDLDRLNIIHVTGTKGKGSTCAFTECILRSYGLKTGFFSSPHLVQVRERIRINGQPISPELFTKYFWRLYHRLEETKDGSCVSMPPYFRFLTLMAFHVFLQEKVDLAVVEVGIGGAYDCTNIIRKPVVCGVSSLGIDHTSLLGDTVEKIAWQKGGIFKQGVPAFTVLQPEGPLAVLRDRAQQISCPLYLCPMLEALEEGGPPLTLGLEGEHQRSNAALALQLAHCWLQRQDRHGAGEPKASRPGLLWQLPLAPVFQPTSHMRLGLRNTEWPGRTQVLRRGPLTWYLDGAHTASSAQACVRWFRQALQGRERPSGGPEVRVLLFNATGDRDPAALLKLLQPCQFDYAVFCPNLTEVSSTGNADQQNFTVTLDQVLLRCLEHQQHWNHLDEEQASPDLWSAPSPEPGGSASLLLAPHPPHTCSASSLVFSCISHALQWISQGRDPIFQPPSPPKGLLTHPVAHSGASILREAAAIHVLVTGSLHLVGGVLKLLEPALSQ

Assays:
[1] = test system: MCF7; assay: Ability to inhibit growth of MCF-7 human breast adenocarcinoma in vitro; type: functional, cell-based
[2] = test system: MOLT-4; assay: Ability to inhibit [3H]methotrexate transport into MOLT-4 cells in vitro; type: functional, cell-based; conditions: Homo sapiens
[3] = test system: CCRF-CEM; assay: In vitro antitumor activity was assessed from rate of cell growth of CCRF/CEM cell line; type: functional, cell-based; conditions: Homo sapiens
[4] = species on record: Sus scrofa; assay: Vmax of Hog folyl-poly-glutamate synthase (FPGS) relative to aminopterin; conditions: pig, in vitro
[5] = test system: folylpolyglutamate synthase (FPGS); assay: Km of Hog folyl-poly-glutamate synthase (FPGS) relative to aminopterin; design: species or system Sus scrofa; conditions: pig, hog folylpolyglutamate synthase (FPGS) enzyme
[6] = substrate: Nc1nc(N)c(CCCNc2ccc(C(=O)N[C@@H](CCC(=O)O)C(=O)O)s2)c(O)n1; assay: (§1) Vmax of Hog Folyl-polyglutamate synthase relative to aminopterin; conditions: Sus scrofa
[7] = substrate: Nc1nc(N)c(CCCNc2cnc(C(=O)N[C@@H](CCC(=O)O)C(=O)O)s2)c(O)n1; assay: as §1; conditions: Sus scrofa
[8] = substrate: Nc1nc(N)c(CCCNc2ccc(C(=O)N[C@@H](CCC(=O)O)C(=O)O)s2)c(O)n1; assay: (§2) Km of Hog Folyl-polyglutamate synthase relative to aminopterin; conditions: Sus scrofa
[9] = substrate: Nc1nc(N)c(CCCNc2cnc(C(=O)N[C@@H](CCC(=O)O)C(=O)O)s2)c(O)n1; assay: as §2; conditions: Sus scrofa

Row | Molecule | IC50 [1] [nM] | IC50 [2] [nM] | IC50 [3] [nM] | also measured
1 | Nc1nc(N)c(CCCNc2ccc(C(=O)N[C@@H](CCC(=O)O)C(=O)O)s2)c(O)n1 | 38 | 1600 | – | –
2 | Nc1nc(N)c(CCCNc2cnc(C(=O)N[C@@H](CCC(=O)O)C(=O)O)s2)c(O)n1 | 4 | 800 | – | –
3 | Nc1nc2c(c(=O)[nH]1)C[C@@H](CCc1ccc(C(=O)N[C@@H](CCC(=O)O)C(=O)O)cc1)CN2 [LOMETREXOL] | 18 | 1500 | 15 | Vmax [4]: 97%; Km [5]: 17.5 µM
4 | Nc1nc(O)c2c(n1)NCC(CCc1ccc(C(=O)N[C@@H](CCC(=O)O)C(=O)O)o1)C2 (stereo partly specified) | – | – | 27 | –
5 | Nc1nc(O)c2c(n1)NCC(CCc1ccc(C(=O)N[C@@H](CCC(=O)O)C(=O)O)s1)C2 (stereo partly specified) | – | – | 2.3 | –
6 | Nc1nc(N)c(CCCNc2ccc(C(=O)N[C@@H](CCC(=O)O)C(=O)O)cc2)c(O)n1 | 37 | – | – | –
7 | B1 | – | – | – | Vmax [6]: 118%; Vmax [7]: 99.3%; Km [8]: 9.3 µM; Km [9]: 8.6 µM
